From paper PMC10423561, “Effects of the CYP3A inhibitors, voriconazole, itraconazole, and fluconazole on the pharmacokinetics of osimertinib in rats” (PeerJ, 2023)
“And” between values parts separate entries of the source, which are not always exact repeats. Equal values may be shown once.

Experiment: Stability of OSIM in rat plasma QC samples (bench-top, autosampler, freeze-thaw, long-term)
Type: in vitro ADME
Details: for B-LQC RE, AVERAGE / B-LQC measured concentration, AVERAGE / B-LQC RE / B-LQC measured concentration: nominal 5.02 ng/ml; for B-LQC RE, AVERAGE / B-LQC measured concentration, AVERAGE / B-MQC RE, AVERAGE / B-MQC measured concentration, AVERAGE / B-HQC RE, AVERAGE / B-HQC measured concentration, AVERAGE: average of 4; for B-LQC RE / B-LQC measured concentration / B-MQC RE / B-MQC measured concentration / B-HQC RE / B-HQC measured concentration: single replicates; for B-MQC RE, AVERAGE / B-MQC measured concentration, AVERAGE / B-MQC RE / B-MQC measured concentration: nominal 200.8 ng/ml; for B-HQC RE, AVERAGE / B-HQC measured concentration, AVERAGE / B-HQC RE / B-HQC measured concentration: nominal 401.6 ng/ml; for Relative stability: n=4
Description: Bench-top stability was tested by placing the pretreatment samples at room temperature ([…]) for 6 h, autosampler stability was assessed by placing the prepared sample in the injector for 24 h, freeze-thaw stability was determined to be adequate over at least three cycles (from −30 °C to 25 °C), and long-term stability was assessed to be at least one month before sample preparation (at −30 °C for 30 d). For all stability results, the average %RE of OSIM ranged from −11.04% to 7.48% across the three QC concentrations, with the %CV less than 6.42% (Table S4).

Compound: C=CC(=O)Nc1cc(Nc2nccc(-c3cn(C)c4ccccc34)n2)c(OC)cc1N(C)CCN(C)C [OSIM, Osimertinib]
- B-LQC RE, AVERAGE (-30℃(30 day)): -11.04%
- B-LQC measured concentration, AVERAGE (-30℃(30 day)): 4.47 ng/mL
- B-LQC RE (-30℃(30 day)): -11.88% and -13.96% and -8.90% and -9.43%
- B-LQC measured concentration (-30℃(30 day)): 4.42 ng/mL and 4.32 ng/mL and 4.57 ng/mL and 4.55 ng/mL
- B-MQC RE, AVERAGE (-30℃(30 day)): -0.87%
- B-MQC measured concentration, AVERAGE (-30℃(30 day)): 199.05 ng/mL
- B-MQC RE (-30℃(30 day)): 4.20% and -2.59% and -1.56% and -3.53%
- B-MQC measured concentration (-30℃(30 day)): 209.23 ng/mL and 195.60 ng/mL and 197.67 ng/mL and 193.72 ng/mL
- B-HQC RE, AVERAGE (-30℃(30 day)): -1.09%
- B-HQC measured concentration, AVERAGE (-30℃(30 day)): 397.22 ng/mL
- B-HQC RE (-30℃(30 day)): -0.61% and 0.80% and -5.35%
- B-HQC measured concentration (-30℃(30 day)): 399.15 ng/mL and 404.80 ng/mL and 380.13 ng/mL
- B-LQC RE, AVERAGE (AUTO(24h)): -6.71%
- B-LQC measured concentration, AVERAGE (AUTO(24h)): 4.68 ng/mL
- B-LQC RE (AUTO(24h)): -12.78% and -6.93% and -1.98% and -5.16%
- B-LQC measured concentration (AUTO(24h)): 4.38 ng/mL and 4.67 ng/mL and 4.92 ng/mL and 4.76 ng/mL
- B-MQC RE, AVERAGE (AUTO(24h)): -1.60%
- B-MQC measured concentration, AVERAGE (AUTO(24h)): 197.59 ng/mL
- B-MQC RE (AUTO(24h)): -1.66% and 4.91% and -1.78% and -7.87%
- B-MQC measured concentration (AUTO(24h)): 197.46 ng/mL and 210.66 ng/mL and 197.22 ng/mL and 184.99 ng/mL
- B-HQC RE, AVERAGE (AUTO(24h)): -4.24%
- B-HQC measured concentration, AVERAGE (AUTO(24h)): 384.55 ng/mL
- B-HQC RE (AUTO(24h)): -2.81% and -5.55% and -7.95% and -0.66%
- B-HQC measured concentration (AUTO(24h)): 390.30 ng/mL and 379.32 ng/mL and 369.66 ng/mL and 398.95 ng/mL
- B-LQC RE, AVERAGE (ROOM(6h)): 7.48%
- B-LQC measured concentration, AVERAGE (ROOM(6h)): 5.40 ng/mL
- B-LQC RE (ROOM(6h)): 11.63% and 8.45% and 4.43% and 5.39%
- B-LQC measured concentration (ROOM(6h)): 5.60 ng/mL and 5.44 ng/mL and 5.24 ng/mL and 5.29 ng/mL
- B-MQC RE, AVERAGE (ROOM(6h)): 5.16%
- B-MQC measured concentration, AVERAGE (ROOM(6h)): 211.16 ng/mL
- B-MQC RE (ROOM(6h)): 7.61% and 11.08% and 3.27% and -1.32%
- B-MQC measured concentration (ROOM(6h)): 216.07 ng/mL and 223.04 ng/mL and 207.36 ng/mL and 198.15 ng/mL
- B-HQC RE, AVERAGE (ROOM(6h)): -3.51%
- B-HQC measured concentration, AVERAGE (ROOM(6h)): 387.49 ng/mL
- B-HQC RE (ROOM(6h)): -6.10% and -7.91% and 2.69% and -2.75%
- B-HQC measured concentration (ROOM(6h)): 377.12 ng/mL and 369.84 ng/mL and 412.42 ng/mL and 390.57 ng/mL
- B-LQC RE, AVERAGE (after RTF(-30℃30 day)): 6.03%
- B-LQC measured concentration, AVERAGE (after RTF(-30℃30 day)): 5.32 ng/mL
- B-LQC RE (after RTF(-30℃30 day)): -1.95% and 2.78% and 10.68% and 12.61%
- B-LQC measured concentration (after RTF(-30℃30 day)): 4.92 ng/mL and 5.16 ng/mL and 5.56 ng/mL and 5.65 ng/mL
- B-MQC RE, AVERAGE (after RTF(-30℃30 day)): -2.85%
- B-MQC measured concentration, AVERAGE (after RTF(-30℃30 day)): 195.09 ng/mL
- B-MQC RE (after RTF(-30℃30 day)): -3.40% and 0.97% and -3.10% and -5.85%
- B-MQC measured concentration (after RTF(-30℃30 day)): 193.98 ng/mL and 202.74 ng/mL and 194.57 ng/mL and 189.05 ng/mL
- B-HQC RE, AVERAGE (after RTF(-30℃30 day)): -9.46%
- B-HQC measured concentration, AVERAGE (after RTF(-30℃30 day)): 363.62 ng/mL
- B-HQC RE (after RTF(-30℃30 day)): -9.22% and -10.28% and -11.32% and -7.01%
- B-HQC measured concentration (after RTF(-30℃30 day)): 364.57 ng/mL and 360.31 ng/mL and 356.15 ng/mL and 373.44 ng/mL
- Relative stability (prepared sample in autosampler for 24 h, range over LQC/MQC/HQC): 94.15-103.09%
- Relative stability (rat plasma, long-term at −30 °C for 30 days, range over LQC/MQC/HQC): 88.96-98.91%
- Relative stability (rat plasma, room temperature for 6 h, range over LQC/MQC/HQC (5, 200, 400 ng/mL)): 96.49-107.48%
- Relative stability (rat plasma, three freeze-thaw cycles (−30 °C to 25 °C), range over LQC/MQC/HQC): 90.54-106.03%
